Assay results from the CATMoS acute toxicity set (Mansouri et al. 2021).

Experiment: GHS categories as the set defines them, by LD50: 1 up to 5, 2 up to 50, 3 up to 300, 4 up to 2000, 5 above 2000 mg/kg
Settings: rat; in vivo; po

SMILES | GHS category
CC1(C)S[C@@H]2[C@H](NC(=O)[C@H](N)c3ccc(O)cc3)C(=O)N2[C@H]1C(=O)O | 5
COC(=O)c1cc(F)ccc1N | 5
O=C(Cc1cccs1)N[C@@H]1C(=O)N2C(C(=O)O)=C(CO)CS[C@H]12 | 5
C=CCN(C(C)=O)C(=O)Oc1cccc2c1OC(C)(C)O2 | 4
C=CC(C)=CCC1OC1(C)C (centres undefined) | 5
NP(N)(=O)Nc1ccccc1[N+](=O)[O-] | 5
Nc1nc2c(s1)CC(N)CC2 (centres undefined) | 4
COc1ccccc1OCCNCC(O)COc1cccc2[nH]c3ccccc3c12 (centres undefined) | 5
COC1=CC(=O)C[C@@H](C)[C@]12Oc1c(Cl)c(OC)cc(OC)c1C2=O | 5
COc1cc2c(s1)C(O)=C(C(=O)Nc1ccccn1)N(C)S2(=O)=O | 3
CO/N=C(/C(=O)N[C@@H]1C(=O)N2C(C(=O)O)=C(CSc3cnns3)CS[C@H]12)c1csc(N)n1 | 5
O=C(CCCCC(=O)N(CCO)CCO)N(CCO)CCO | 5
CCOc1cc(NCCCN(C)C)c(=O)n(-c2ccccc2)n1 | 5
COc1ccc2c(c1)CCN(c1cccc(F)c1)C2c1cccc(F)c1 (centres undefined) | 4
Cc1nsc(NC(=O)c2ccccc2)c1C(=O)Nc1ccc(Cl)cc1 | 5
CC(C)(c1ccccc1)C(C)(C)c1ccccc1 | 5
COc1cnc(OC)n2nc(NS(=O)(=O)c3c(OCC(F)F)cccc3C(F)(F)F)nc12 | 5
CC(CCC(=O)O)C1CCC2C3C(OS(=O)(=O)O)CC4CC(OS(=O)(=O)O)CCC4(C)C3CCC12C (centres undefined) | 5
CC(C)N1CCN(C(=O)c2ccc(OC(=O)C3CCCc4ccccc43)cc2)CC1 (centres undefined) | 5
CC(C)(C)OOC(C)(C)c1ccc(C(C)(C)OOC(C)(C)C)cc1 | 5
CC(=O)C(N=Nc1ccc(C(=O)Nc2ccc(C(N)=O)cc2)cc1)C(=O)Nc1ccc2[nH]c(=O)[nH]c2c1 (centres undefined) | 5
O=S(=O)(O)c1cc(-n2nc3ccc4ccccc4c3n2)ccc1C=Cc1ccccc1 | 5

SMILES | GHS category
COC(=O)c1ccc(OC)cc1 | 5
Cc1ncc(CSSCc2cnc(C)c(O)c2CO)c(CO)c1O | 5
CNC(=O)c1sc(-c2ccc(OC)cc2)nc1C | 5
CC(C)[N+](C)(CCC(C(N)=O)(c1ccccc1)c1ccccc1)C(C)C | 5
COC(=O)C(C)(C)c1ccc(Br)cc1 | 5
CCOC(=O)C(C)CC (centres undefined) | 5
CCCC(=O)O[C@]1(C(=O)CCl)[C@@H](C)C[C@H]2[C@@H]3CCC4=CC(=O)C=C[C@]4(C)[C@@]3(F)C(=O)C[C@@]21C | 5
CCCCCCCCCCCC#N | 5
O=C(O)c1cc(O)c2c3nc4ccccc4oc-3cc(=O)c2n1 | 5
CC(C)(C)c1ccc(C(=O)CCCN2CCC(OC(c3ccccc3)c3ccccc3)CC2)cc1 | 5
COC(=O)c1ccc(N2CCC(c3ccc(Cl)cc3)=N2)cc1 | 5
C=CC(=O)OCCCCOc1ccc(C(=O)Oc2ccc(OC(=O)c3ccc(OCCCCOC(=O)C=C)cc3)c(C)c2)cc1 | 5
CN[C@@H]1[C@H](O[C@H]2[C@H](O[C@@H]3[C@H](O)[C@@H](O)[C@@H](OC(N)=O)[C@@H](O)[C@@H]3NC(=N)N)O[C@@H](C)[C@]2(O)CO)O[C@@H](CO)[C@H](O)[C@H]1O | 5
CC[C@@]12C=C(C(=O)OC3OC(=O)c4ccccc43)n3c4c(c5ccccc53)CCN(CCC1)[C@H]42 (some centres undefined) | 5
CC1COCc2cc3c(cc21)C(C)(C)C(C)C3(C)C (centres undefined) | 5
CCCCCCCCCCCCCCCC[Si](OC)(OC)OC | 5
CCC1(c2ccccc2O)NC(=O)NC1=O (centres undefined) | 5
CCCCCCCCCCCC(=O)N(CCCC)CCCC | 5
CCC1COC(Cn2ccnc2)(c2cc3cc(Cl)cc(Cl)c3o2)O1 (centres undefined) | 4
COc1ccc(-c2cc(=O)c3c(OCCO)cc(O[C@@H]4O[C@H](CO[C@@H]5O[C@@H](C)[C@H](O)[C@@H](O)[C@H]5O)[C@@H](O)[C@H](O)[C@H]4O)cc3o2)cc1O | 5
CO[Si](OC)(C1CCCC1)C1CCCC1 | 5
CC(C)=CCC/C(C)=C/C(=O)OCCC(C)C | 5

SMILES | GHS category
O=C(Nc1ccc(Cl)cc1)Nc1ccc(Cl)c(Cl)c1 | 5
O=C(O)CN(CCCN(C(=O)O)C(=O)O)C(=O)O | 5
CC/C=C\CCOC(C)=O | 5
CCC(=O)OC/C=C(\C)CCC=C(C)C | 5
CC1N=C(c2ccccc2Cl)c2c(ccc(NC(=O)NCCO)c2Br)N(C)C1=O (centres undefined) | 5
O=CCCc1ccccc1 | 5
O=C(NC(=O)c1c(F)cccc1F)Nc1ccc(Oc2ccc(C(F)(F)F)cc2Cl)cc1F | 5
CC(C)=CCOC1=C(C(=O)Nc2ccccn2)N(C)S(=O)(=O)c2cc(Cl)sc21 | 2
CCC(Oc1ccc(C(C)(C)CC)cc1C(C)(C)CC)C(=O)O (centres undefined) | 5
CCCCOc1ccc(-c2ccc(C#N)cc2)cc1 | 5
C[C@H]1[C@H](NC(=O)C(=NOC(C)(C)C(=O)O)c2csc(N)n2)C(=O)N1S(=O)(=O)O | 5
O=C(CCCN1CCC2(CC1)C(=O)NCN2c1ccccc1)c1ccc(F)cc1 | 4
N=c1ccn2c(n1)O[C@H]1[C@H](O)[C@@H](CO)O[C@H]12 | 5
CCCCOC(=O)c1ccccc1N | 5
CCC(C)n1ncn(-c2ccc(N3CCN(c4ccc(O)cc4)CC3)cc2)c1=O (centres undefined) | 5
CC(=O)S[C@H]1CC(=O)C=C2C[C@@H](SC(C)=O)[C@@H]3[C@H](CC[C@@]4(C)[C@H]3CC[C@]4(C)O)[C@]21C | 5
O=C1/C(=C2\Nc3ccccc3C2=O)Nc2ccccc21 | 5
CCCc1c(Cc2ccc(-c3ccccc3-c3nn[nH]n3)cc2)c(=O)nc2nc(N(CC)CC)[nH]n12 | 4
COc1ccc2c(c1)CC[C@@H]1[C@@H]2CC[C@]2(C)C(=O)CC[C@@H]12 | 5
CC(C)CCCC(C)CCO (centres undefined) | 5
CC=CCCC1CCCC(=O)O1 (centres undefined) | 5
CC(C)=CCC/C(C)=C/COC(=O)C(C)C | 5

SMILES | GHS category
NC(N)=Nc1nc(CSCC/N=C/NS(=O)(=O)c2ccc(Br)cc2)cs1 | 5
CC(CC=O)c1ccccc1 (centres undefined) | 5
CCCCC1OC(C)CC(C)(C)O1 (centres undefined) | 5
O=c1c2ccccc2c(=O)c2c1cc(Cl)c1[nH]c3c([nH]c12)c(Cl)cc1c(=O)c2ccccc2c(=O)c13 | 5
COc1ccccc1N1CCN(/C(=N\CCCO)Nc2ccccc2)CC1 | 4
COCc1c(Cc2ccc(-c3ccccc3-c3nn[nH]n3)cc2)c(=O)nc2nc[nH]n12 | 4
Clc1ccc2oc(C3(Cn4ccnc4)OCCO3)cc2c1 | 4
CC(=O)C1(c2ccccc2)CCN(CCCOc2ccc3c(c2)NC(=O)CC3)CC1 | 4
COc1cc(OC)nc(N=C(O)NS(=O)(=O)N(C)S(C)(=O)=O)n1 | 5
CCCCn1cc2c3c(cccc31)C1=C[C@@H](CO)CN(C)[C@@H]1C2 | 4
O=c1[nH]c(=O)n(C2OC(CO)C(O)C2O)cc1C=CBr (centres undefined) | 5
CC(C)(c1ccc(OCCO)cc1)c1ccc(OCCO)cc1 | 5
O=C(O)c1ccccc1C(=O)O | 5
O=C1Cc2ccccc2O1 | 5
CC(=O)O[C@@H]1C[C@H](C)CC[C@H]1C(C)C | 5
O=C(CC(=O)c1ccccc1)c1ccccc1 | 5
CC(C)=CCC/C(C)=C\COC(=O)C(C)C | 5
B12B3B4B1C234 | 5
C=C(C)C1CCC(C)C(=O)C1 (centres undefined) | 5
COc1ccc2c(c1)CCN(c1ccccc1)C2c1ccccc1Br (centres undefined) | 4
O=C1NC(=O)C(c2ccccc2)(c2ccc(O)cc2)N1 (centres undefined) | 5
O=C(O)C(=O)[C@@H](O)[C@H](O)[C@H](O)CO | 5

SMILES | GHS category
CC(C)C1C=C2CCC3C(C)(CO)CCCC3(C)C2CC1 (centres undefined) | 5
O=C1c2ccc(Br)cc2C(=O)C1(Br)c1ccc2ccccc2c1 (centres undefined) | 5
C=C(OCC)C1C(C)(C)CC(=O)CC1(C)C | 5
CC1=C(C(=O)O)N2C(=O)[C@@H](NC(=O)[C@H](N)c3ccc(O)cc3)[C@H]2SC1 | 5
Nc1ccc(S(=O)(=O)Nc2ncccn2)cc1 | 5
CCCOC(=O)Cc1ccc(OCC(=O)N(CC)CC)c(OC)c1 | 5
CC[C@H]1OC(=O)[C@H](C)[C@@H](O[C@H]2C[C@@](C)(OC)[C@@H](O)[C@H](C)O2)[C@H](C)[C@@H](O[C@@H]2O[C@H](C)C[C@H](N(C)C)[C@H]2O)[C@](C)(O)C[C@@H](C)CN(C)[C@H](C)[C@@H](O)[C@]1(C)O | 5
Cc1ccc(O)c(/N=N/c2ccccc2[N+](=O)[O-])c1 | 5
O=S(=O)(O)c1cc(Nc2nc(Cl)nc(N(CCO)CCO)n2)ccc1C=Cc1ccc(Nc2nc(Cl)nc(N(CCO)CCO)n2)cc1S(=O)(=O)O | 5
CC[C@H]1CO[C@@](Cn2cncn2)(c2cc3cc(Cl)ccc3o2)O1 | 4
Cc1c(OCC(F)(F)F)ccnc1CS(=O)c1nc2ccccc2[nH]1 (centres undefined) | 5
N=C1C=CC2=CC(S(=O)(=O)O)=CC(=O)C2=C1NNc1ccc(-c2ccc(N=Nc3cc(S(=O)(=O)O)c4ccccc4c3N)cc2)cc1 | 5
CCC1(c2ccc(O)cc2)NC(=O)NC1=O (centres undefined) | 5
O=S(=O)(O)c1ccc(/N=N/c2cc(CO)c(O)c(/N=N/c3ccc(S(=O)(=O)O)c4ccccc34)c2O)c2ccccc12 | 5
CC(C)(C)OP(=O)(O)OC(C)(C)C | 5
O=C(Cc1ccccc1)C1C(=O)CC(c2ccccc2)CC1=O (centres undefined) | 5
Cc1ccc(S(=O)(=O)NC(=O)NN2CCCCCC2)cc1 | 5
CCCCCCCCCC(=O)Nc1ccc(Cc2ccccn2)c([N+](=O)[O-])c1 | 3
O=[N+]([O-])c1ccc(Nc2ccccc2)cc1 | 5
CC(C)CCC[C@@H](C)[C@H]1CC[C@H]2[C@@H]3CC[C@H]4C[C@H](O)CC[C@]4(C)[C@H]3CC[C@]12C | 4
CC(C)(c1ccc(OCC2CO2)cc1)c1ccc(OCC2CO2)cc1 (centres undefined) | 4
